Test results as given in US12404345B2, “Humanized antibodies against iRHOM2” (SCIRHOM GMBH, priority 2021, dated 2025).

B1: 42-B-02: humanized antibody binding human iRhom2; HCVD SEQ ID NO 33, LCVD SEQ ID NO 37 (antibody, V domains shown)
VH: QVTLRESGPALVKPTQTLTLTCTFSGFSLSTFGRGVGWIRQPPGKALEWLAHIWWDDEKYYNSALKSRLTISKDTSKNQVVLTITNMDPVDTATYYCARIQNYGSNYWYFDVWGQGTLVTVSS
VL: AIQLTQSPSSLSASVGDRVTITCRASSRISYMFWYQQKPGKAPKVLIYDTSNLASGVPSRFSGSGSGTDYTLTISSLQPEDFATYYCQQWNSYPLTFGQGTKLEIK
modifications: antibody sequences

Key:
[1] = tested on: PMA-induced release of endogenous IL-6R from human PBMCs from healthy donors; experiment: ELISA-based IL-6R release assay, PMA-induced, PBMCs from healthy donors; format: cell-based; settings: PBMC, Batimastat 10 μM, PMA 25 ng/ml, 24 hours
Description: In the following study, ELISA-based IL-6R release assays were performed to analyze the inhibitory effects of the antibodies of the invention on PMA-induced release of endogenous IL-6R from primary human material obtained from healthy donors using peripheral blood mononuclear cells (PBMCs).
In brief, on day 1, Nunc black MaxiSorp® 96-well plates (Thermo Fisher Scientific, USA) were coated overnight with 100 μl per well of mouse anti-human IL-6R capture antibody (provided as part of the DuoSet ELISA kit) at 2 μg/ml TBS at 4° C. […]
Meanwhile, the 96-well plates were centrifuged to pellet cells. […] Using an infinite M1000 (Tecan Group, Switzerland) microplate reader, the fluorescence of each well was collected at an excitation wavelength of 435 nm and an emission wavelength of 555 nm.

RH-30 cells = experiment: FACS binding to RH-30 cells endogenously negative for iRhom2; set-up: species or system human; settings: antibody at 3 μg/ml
Description: In this study, binding specificity analyses of the humanized antibody 42-B-02 as a representative example of the antibodies of the invention in cell lines endogenously expressing iRhom2 were performed. The studies were conducted on RPMI-8226 cells, a human B lymphocytic cell line endogenously expressing iRhom2 but being endogenously negative for iRhom1, on THP-1 cells, a human monocytic cell line endogenously expressing both iRhom2 and iRhom1 and on RH-30 cells, a human […] cell line endogenously negative for iRhom2 but endogenously expressing iRhom1.
In brief, human RPMI-8226 cells (Deutsche Sammlung von Mikroorganismen und Zellkulturen, Germany), THP-1 cells (American Type Culture Collection, USA) and RH-30 cells (Deutsche Sammlung von Mikroorganismen und Zellkulturen, Germany) were harvested with 10 mM EDTA in PBS, washed and resuspended in FACS buffer (PBS, 3% FBS, 0.05% sodium azide), and seeded in Nunc U-bottom 96-well plates (Thermo Fisher Scientific, USA) at approximately 2×10^5 cells per well. In order to pellet cells and remove supernatants, the plates were centrifuged at 1,500 rpm and 4° C. for 3 minutes. […] Finally, cells were resuspended in 150 μl per well of FACS buffer and analyzed using a BD Accuri™ C6 Plus flow cytometer (Becton Dickinson, Germany).

Row | Molecule | inhibition at 10 µM [1] [%] | binding to RH-30 cells (endogenously negative for iRhom2, expressing iRhom1) (RH-30 cells)
1 | CNC(=O)[C@H](Cc1ccccc1)NC(=O)[C@H](CC(C)C)[C@H](CSc1cccs1)C(=O)NO [Batimastat] | 96.2 | –
2 | B1 | – | no binding
